Experimental data: patent EP2468718A1, “Cabanillasin, a new antifungal compound, produced by entomopathogenic xenorhabdus cabanillasii” (Nosopharm, priority 2010, dated 2012)
Converted amounts (≈) assume the structure as drawn. “And” between values parts separate entries of the source, which are not always exact repeats. Identical values can stand only once. Like-named read-outs stand apart in the source and are kept apart here.

Tests used:
Format in all cases: cell-based
[1] = test system: PC-3 (Human prostatic carcinoma); assay: Cytotoxicity test (MTT); settings: 48 h exposure, triplicate
Protocol: (§1) One hundred microliters of the cell suspension of PC-3 (Human prostatic carcinoma) or hTERT HME-1 (Human normal mammary epithelium) prepared in RPMI + 10% SVF + 1% glutamine were inoculated into 96-well plates. The inoculating cell number was 3500 cells per well for PC-3 and 7500 cells per well for hTERT HME-1. The microplates were incubated at 37°C for 24h with 5% of CO2. After 24 h of culture, the medium was removed by aspiration and 100 µl of RPMI + 10% SVF + 1% glutamine with 8 concentrations of Cabanillasin (from 0.78 µg/mL to 100 µg/mL) were added to each well. Microplates were incubated at 37°C for 48 h with 5% of CO2. After 48h of culture, the medium was removed by aspiration and 100 µL of RPMI + MTT (0.5 mg/mL) were added to each wells. Microplates were inoculated at 37°C during 150 min. Next, all the medium was removed by inverting and tapping the plate and 100 µL of DMSO were added in each plate. The spectrophotometric absorbance was then measured at 550 nm. The Lethal Dose 50 correspond to DL50 = ((50-(Y2-((Y1-Y2)/(X1-X2))*X2))/ ((Y1-Y2)/(X1-X2))). […] Experiments were done in triplicate.

[2] = test system: hTERT HME-1 (Human normal mammary epithelium); assay: Cytotoxicity test (MTT); settings: 48 h exposure, triplicate
Protocol: as §1

[3] = test system: Candida Glabrata ATCC 90030; assay: Antifungal susceptibility testing, NCCLS M27-A2 broth microdilution (yeasts); settings: Nakaseomyces glabratus, ATCC90030; for inhibition at 0.09 µg/mL / inhibition at 0.19 µg/mL / inhibition at 0.39 µg/mL / inhibition at 0.78 µg/mL / inhibition at 1.56 µg/mL / inhibition at 3.12 µg/mL / inhibition at 6.25 µg/mL / inhibition at 12.5 µg/mL / inhibition at 25 µg/mL / inhibition at 50 µg/mL: read-out: % of growth inhibition
[4] = test system: Cryptococcus neoformans clinical strain; assay: as above; settings: for inhibition at 0.09 µg/mL / inhibition at 0.19 µg/mL / inhibition at 0.39 µg/mL / inhibition at 0.78 µg/mL / inhibition at 1.56 µg/mL / inhibition at 3.12 µg/mL / inhibition at 6.25 µg/mL / inhibition at 12.5 µg/mL / inhibition at 25 µg/mL / inhibition at 50 µg/mL: read-out: % of growth inhibition
[5] = test system: Candida albicans ATCC 90029; assay: as above; settings: for inhibition at 0.09 µg/mL: ATCC90029, 0.09 µg/mL; for inhibition at 0.09 µg/mL / inhibition at 0.19 µg/mL / inhibition at 0.39 µg/mL / inhibition at 0.78 µg/mL / inhibition at 1.56 µg/mL / inhibition at 3.12 µg/mL / inhibition at 6.25 µg/mL / inhibition at 12.5 µg/mL / inhibition at 25 µg/mL / inhibition at 50 µg/mL: read-out: % of growth inhibition; for inhibition at 0.19 µg/mL: ATCC90029, 0.19 µg/mL; for inhibition at 0.39 µg/mL: ATCC90029, 0.39 µg/mL; for inhibition at 0.78 µg/mL: ATCC90029, 0.78 µg/mL; for inhibition at 1.56 µg/mL: ATCC90029, 1.56 µg/mL; for inhibition at 3.12 µg/mL: ATCC90029, 3.12 µg/mL; for inhibition at 6.25 µg/mL: ATCC90029, 6.25 µg/mL; for inhibition at 12.5 µg/mL: ATCC90029, 12.5 µg/mL; for inhibition at 25 µg/mL: ATCC90029, 25 µg/mL; for inhibition at 50 µg/mL: ATCC90029, 50 µg/mL

CC(=O)NC(=N)NCCCCNC(=N)NCCCCNC(=N)NCCCCNC(=N)NCCCCN [Cabanillasin]
LD 50 [1]: 46.83 ± 1.55 µg/mL and 46.83 µg/mL | LD 50 [2]: 24.46 ± 2.51 µg/mL and 24.46 µg/mL | inhibition at 0.09 µg/mL ([3]; 24 h incubation): 0% | inhibition at 0.09 µg/mL ([3]; 48 h incubation): 0% | inhibition at 0.19 µg/mL ([3]; 24 h incubation): 5.5% | inhibition at 0.19 µg/mL ([3]; 48 h incubation): 0% | inhibition at 0.39 µg/mL ([3]; 24 h incubation): 11.4% | inhibition at 0.39 µg/mL ([3]; 48 h incubation): 0% | inhibition at 0.78 µg/mL ([3]; 24 h incubation): 15.5% | inhibition at 0.78 µg/mL ([3]; 48 h incubation): 0% | inhibition at 1.56 µg/mL ([3]; 24 h incubation): 28% | inhibition at 1.56 µg/mL ([3]; 48 h incubation): 0% | inhibition at 3.12 µg/mL ([3]; 24 h incubation): 31% | inhibition at 3.12 µg/mL ([3]; 48 h incubation): 0% | inhibition at 6.25 µg/mL ([3]; 24 h incubation): 49.3% | inhibition at 6.25 µg/mL ([3]; 48 h incubation): 0% | inhibition at 12.5 µg/mL ([3]; 24 h incubation): 66.2% | inhibition at 12.5 µg/mL ([3]; 48 h incubation): 18.5% | inhibition at 25 µg/mL ([3]; 24 h incubation): 61.4% | inhibition at 25 µg/mL ([3]; 48 h incubation): 44% | inhibition at 50 µg/mL ([3]; 24 h incubation): 59% | inhibition at 50 µg/mL ([3]; 48 h incubation): 57% | IC50 ([3]; 24 h of incubation): 6.25 µg/mL (≈ 12.2 µM) | inhibition at 0.09 µg/mL ([4]; 48 h incubation): 0% | inhibition at 0.09 µg/mL ([4]; 72 h incubation): 0% | inhibition at 0.19 µg/mL ([4]; 48 h incubation): 0% | inhibition at 0.19 µg/mL ([4]; 72 h incubation): 0% | inhibition at 0.39 µg/mL ([4]; 48 h incubation): 0% | inhibition at 0.39 µg/mL ([4]; 72 h incubation): 0% | inhibition at 0.78 µg/mL ([4]; 48 h incubation): 0% | inhibition at 0.78 µg/mL ([4]; 72 h incubation): 0% | inhibition at 1.56 µg/mL ([4]; 48 h incubation): 0% | inhibition at 1.56 µg/mL ([4]; 72 h incubation): 0% | inhibition at 3.12 µg/mL ([4]; 48 h incubation): 23.8% | inhibition at 3.12 µg/mL ([4]; 72 h incubation): 0% | inhibition at 6.25 µg/mL ([4]; 48 h incubation): 32% | inhibition at 6.25 µg/mL ([4]; 72 h incubation): 0% | inhibition at 12.5 µg/mL ([4]; 48 h incubation): 47.3% | inhibition at 12.5 µg/mL ([4]; 72 h incubation): 0% | inhibition at 25 µg/mL ([4]; 48 h incubation): 65.3% | inhibition at 25 µg/mL ([4]; 72 h incubation): 0% | inhibition at 50 µg/mL ([4]; 48 h incubation): 63.8% | inhibition at 50 µg/mL ([4]; 72 h incubation): 0% | IC50 ([4]; after 48 h): 25 µg/mL (≈ 48.9 µM) | IC50 ([4]; after 72 h): > 50 µg/mL | inhibition at 0.09 µg/mL ([5]; 24 h incubation): 34% | inhibition at 0.09 µg/mL ([5]; 48 h incubation): 0% | inhibition at 0.19 µg/mL ([5]; 24 h incubation): 37% | inhibition at 0.19 µg/mL ([5]; 48 h incubation): 0% | inhibition at 0.39 µg/mL ([5]; 24 h incubation): 34% | inhibition at 0.39 µg/mL ([5]; 48 h incubation): 0% | inhibition at 0.78 µg/mL ([5]; 24 h incubation): 50.5% | inhibition at 0.78 µg/mL ([5]; 48 h incubation): 0% | inhibition at 1.56 µg/mL ([5]; 24 h incubation): 46.3% | inhibition at 1.56 µg/mL ([5]; 48 h incubation): 0% | inhibition at 3.12 µg/mL ([5]; 24 h incubation): 45.4% | inhibition at 3.12 µg/mL ([5]; 48 h incubation): 0% | inhibition at 6.25 µg/mL ([5]; 24 h incubation): 47.7% | inhibition at 6.25 µg/mL ([5]; 48 h incubation): 0% | inhibition at 12.5 µg/mL ([5]; 24 h incubation): 70.7% | inhibition at 12.5 µg/mL ([5]; 48 h incubation): 0% | inhibition at 25 µg/mL ([5]; 24 h incubation): 71% | inhibition at 25 µg/mL ([5]; 48 h incubation): 0% | inhibition at 50 µg/mL ([5]; 24 h incubation): 81% | inhibition at 50 µg/mL ([5]; 48 h incubation): 18% | IC50 ([5]; ATCC90029, 24 h of incubation): 0.78 µg/mL (≈ 1.52 µM)
